In EP0155244A2, “1-Ethyl-6-fluoro-7-(1H-pirrol-1-yl)-1,4-dihydro-4-oxoquinoline-3-carboxylic acid: preparation and antimicrobial activities” (priority 1985, dated 1985):
≈ marks a conversion by molar mass, not a printed value. Like-named read-outs stand apart in the source and are kept apart here.

Experiments:
Gram-positive bacteria = assay: In vitro antibacterial activity, summary for Gram-positive bacteria; assay type: cell-based, Staphylococcus and Streptococcus
Description: (§1) Derivatives (1) and (9) were tested for the in vitro antibacterial activities against Gram-positive and Gram-negative bacteria.Nalidixic acid,pipemidic acid,- piromidic acid and enoxacin were used as positive controls for antibacterial activities.
(§2) Minimum inhibitory concentrations (M.I.C.s) were determined using the serial twolfold dilution method; lectures were performed after incubation at 37° for 18 hours.
(§3) For the experiments the substances were dissolved in NaOH 0.1 N(10 mg/ml);further dilutions in the test medium furnished the required concentrations, generally in the range from 0. 05µg/ml to 100 µg/ml.
(§4) The cultures were obtained on B.H.I. (B.B.L.) after 18 hours incubation at 37°.Tests were carried out using Mueller-Hinton agar (B.B.L.) and inocula were 10^4 bacteria.
(§5) Media M.I.C. values nX (c at least 200 max µg/ml) were calculated by the equation [formula] where si is the number of sensitive strains at the given concentration ci and st is the whole number of the sensitive strains.
(§6) Strains with M.I.C.>200µg/ml are regarded as resistant (R) and are expressed in percentage (%) by the equation : [formula] where N is the whole number of tested strains and N is t s the number of sensitive strains.
(§7) The following species of bacteria freshly isolated from various clinical specimens were tested: 16 strains of […], 10 strains of Staphylococcus spp, 15 strains of Streptococcus ovalis,3 strains of Streptococcus spp, 18 strains of Klebsiella pneumoniae,20 strains of Escherichia coli,ll strains of Salmonella spp (3 S.typhi,l S.paratyphi A,S.paratyphi B, 4 S enteritidis, 1 S.wien and S.infantis,42 strains of Proteus spp (28 P.mirabilis, 8 P.vulgaris,3 P.rettgeri,2 P.morganii and 1 Providencia ) and 8 strains of Pseudomonas aeruginosa.

Escherichia coli = assay: In vitro antibacterial activity, M.I.C. by serial twofold dilution method on Mueller-Hinton agar; assay type: cell-based; conditions: E.Coli, 20 strains, pH 7.2, reading 18 h after incubation at 37°C; for MIC: Escherichia coli
Description: as §1, §2, §3, §4, §5, §6, §7

Klebsiella pneumoniae = assay: as above; assay type: cell-based; conditions: 18 strains, pH 7.2, reading 18 h after incubation at 37°C
Description: as §1, §2, §3, §4, §5, §6, §7

Staphylococcus pyogenes = assay: as above; assay type: cell-based; conditions: 16 strains, pH 7.2, reading 18 h after incubation at 37°C; for MIC: Staphylococcus aureus
Description: as §1, §2, §3, §4, §5, §6, §7

Salmonella spp = assay: as above; assay type: cell-based; conditions: 11 strains, pH 7.2, reading 18 h after incubation at 37°C
Description: as §1, §2, §3, §4, §5, §6, §7

Pseudomonas aeruginosa = assay: as above; assay type: cell-based; conditions: for R% = percentage of resistant strains / MIC: Pseudomonas aeruginosa, 8 strains, pH 7.2, reading 18 h after incubation at 37°C
Description: as §1, §2, §3, §4, §5, §6, §7

Streptococcus spp = assay: as above; assay type: cell-based; conditions: 3 strains, pH 7.2, reading 18 h after incubation at 37°C
Description: as §1, §2, §3, §4, §5, §6, §7

Proteus spp = assay: as above; assay type: cell-based
Description: as §1, §2, §3, §4, §5, §6, §7

Staphylococcus spp = assay: as above; assay type: cell-based; conditions: 10 strains, pH 7.2, reading 18 h after incubation at 37°C
Description: as §1, §2, §3, §4, §5, §6, §7

Streptococcus ovalis = assay: as above; assay type: cell-based; conditions: 15 strains, pH 7.2, reading 18 h after incubation at 37°C
Description: as §1, §2, §3, §4, §5, §6, §7

Enterobacteriaceae = assay: In vitro antibacterial activity, summary for Enterobacteriaceae; assay type: cell-based
Description: as §1, §2, §3, §4, §5
Strains with M.I.C.>200µg/ml are regarded as resistant (R) and are expressed in percentage (%) by the equation : [formula] where N is the whole number of tested strains and N is t s the number of sensitive strains. […]

[1] = read-out: nX̄ = MIC mean values of sensitive strains
[2] = Proteus spp, 42 strains, pH 7.2, reading 18 h after incubation at 37°C
[3] = Proteus spp, 42 strains, pH 7.2, reading 18 h after incubation at 37°C, read-out: nX̄ = MIC mean values of sensitive strains

| Compound | R% (resistant strains) (Gram-positive bacteria) [%] | MIC (Escherichia coli; [1]) [µg/mL] | MIC (Klebsiella pneumoniae; [1]) [µg/mL] | MIC (Klebsiella pneumoniae; read-out: range (MIC)) [µg/mL] | MIC (Staphylococcus pyogenes; [1]) [µg/mL] | MIC (Staphylococcus pyogenes; read-out: range (MIC)) [µg/mL] | MIC (Salmonella spp; [1]) [µg/mL] | MIC (Salmonella spp; read-out: range (MIC)) [µg/mL] | R% = percentage of resistant strains (Pseudomonas aeruginosa) [%] | MIC (Pseudomonas aeruginosa; [1]) [µg/mL] | MIC (Streptococcus spp; [1]) [µg/mL] | MIC (Streptococcus spp; read-out: range (MIC)) [µg/mL] | R% = percentage of resistant strains (Proteus spp; [2]) [%] | MIC (Proteus spp; [3]) [µg/mL] | MIC (Staphylococcus spp; [1]) [µg/mL] | MIC (Staphylococcus spp; read-out: range (MIC)) [µg/mL] | MIC (Streptococcus ovalis; [1]) [µg/mL] | MIC (Streptococcus ovalis; read-out: range (MIC)) [µg/mL] | R% = percentage of resistant strains (Escherichia coli) [%] | R% = percentage of resistant strains (Klebsiella pneumoniae) [%] | other results |
| --- | --- | --- | --- | --- | --- | --- | --- | --- | --- | --- | --- | --- | --- | --- | --- | --- | --- | --- | --- | --- | --- |
| CCn1cc(C(=O)O)c(=O)c2cc(F)c(-n3cccc3)cc21 [Acid (1), l-Ethyl-6-fluoro-l,4-dihydro-4-oxo-7-(lH-pyrrol-l-yl)quinoline-3-carboxylic acid] | 0 | 2 (≈ 6.66 µM) | 3.4 (≈ 11.3 µM) | 0.8 to 25 (≈ 2.66 to 83.3 µM) | 1.96 (≈ 6.53 µM) | 0.1 to 12.5 (≈ 0.333 to 41.6 µM) | 1.3 (≈ 4.33 µM) | 0.1 to 3.12 (≈ 0.333 to 10.4 µM) | 12.5 | 5.6 (≈ 18.6 µM) | 0.2 (≈ 0.666 µM) | 0.2 (≈ 0.666 µM) | 0 | 6.46 (≈ 21.5 µM) | 1.26 (≈ 4.2 µM) | 0.1 to 3.12 (≈ 0.333 to 10.4 µM) | 8.4 (≈ 28 µM) | 0.8 to 100 (≈ 2.66 to 333 µM) |  |  | MIC (Escherichia coli; read-out: range (MIC)): 0.2 to 12.5 µg/mL (≈ 0.666 to 41.6 µM); activity against Pseudomonas aeruginosa (in words) (Pseudomonas aeruginosa; from comparative examination of R% and nX data, not so active as enoxacin): very active; range (MIC) (Proteus spp; [2]): <0.1 to 100 µg/mL; activity against Proteus spp (in words) (Proteus spp; from comparative examination of R% and nX data): highly active; R% (resistant strains) (Enterobacteriaceae): 0% |
| CCn1cc(C(=O)O)c(=O)c2cc(F)c(N3CCCC3)cc21 [Acid (9), 1-Ethyl-6-fluoro-1,4-dihydro-4-oxo-7-(pyrrolidin-1-yl) quinoline-3-carboxylic acid] | 0 | 3.83 (≈ 12.6 µM) | 12.7 (≈ 41.6 µM) | 3.12 to 25 (≈ 10.3 to 82.2 µM) | 5.95 (≈ 19.6 µM) | 0.4 to 25 (≈ 1.31 to 82.2 µM) | 2.78 (≈ 9.14 µM) | 0.2 to 6.25 (≈ 0.657 to 20.5 µM) | 12.5 | 9.87 (≈ 32.4 µM) | 2.2 (≈ 7.23 µM) | 0.4 to 3.12 (≈ 1.31 to 10.3 µM) | 7 | 4.76 (≈ 15.6 µM) | 3.98 (≈ 13.1 µM) | 0.8 to 6.25 (≈ 2.63 to 20.5 µM) | 6.2 (≈ 20.4 µM) | 3.12 to 25 (≈ 10.3 to 82.2 µM) | 10 |  | R% (resistant strains) (Enterobacteriaceae): 0% |
| CCn1cc(C(=O)O)c(=O)c2ccc(C)nc21 [Nalidixic acid, nalidixic acid] |  | 12.4 (≈ 53.4 µM) | 12.9 (≈ 55.5 µM) |  | 100 (≈ 431 µM) |  | 5.2 (≈ 22.4 µM) |  | 50 | 5.46 (≈ 23.5 µM) |  | > 100 | 33 | 6.58 (≈ 28.3 µM) | 25.6 (≈ 110 µM) |  | 3.12 (≈ 13.4 µM) |  | 25 | 22 | R% = percentage of resistant strains (Staphylococcus pyogenes): 94%; R% = percentage of resistant strains (Salmonella spp): 18%; R% = percentage of resistant strains (Streptococcus spp): 100%; R% = percentage of resistant strains (Staphylococcus spp): 50%; R% = percentage of resistant strains (Streptococcus ovalis): 93% |
| CCn1cc(C(=O)O)c(=O)c2cc(F)c(N3CCNCC3)cc21 [Norfloxacin, norfloxacin] |  | 4.47 (≈ 14 µM) | 1.93 (≈ 6.04 µM) | 0.2 to 6.25 (≈ 0.626 to 19.6 µM) | 8.64 (≈ 27.1 µM) | 0.4 to 25 (≈ 1.25 to 78.3 µM) | 2.66 (≈ 8.33 µM) | 0.2 to 12.5 (≈ 0.626 to 39.1 µM) | 0 | 1.42 (≈ 4.45 µM) | 3.6 (≈ 11.3 µM) | 1.56 to 6.25 (≈ 4.89 to 19.6 µM) | 0 | 8.1 (≈ 25.4 µM) | 4.79 (≈ 15 µM) | 0.2 to 25 (≈ 0.626 to 78.3 µM) | 17.2 (≈ 53.9 µM) | 0.8 to 100 (≈ 2.51 to 313 µM) |  |  | MIC (Escherichia coli; read-out: range (MIC)): 0.2 to 25 µg/mL (≈ 0.626 to 78.3 µM); MIC (Pseudomonas aeruginosa; read-out: range (MIC)): 0.4 to 3.12 µg/mL (≈ 1.25 to 9.77 µM); MIC (Proteus spp; Proteus spp, 42 strains, pH 7.2, reading 18 h after incubation at 37°C, read-out: range (MIC)): 0.2 to 100 µg/mL (≈ 0.626 to 313 µM) |
| CCn1cc(C(=O)O)c(=O)c2cnc(N3CCNCC3)nc21 [Pipemidic acid, pipemidic acid] |  | 4.12 (≈ 13.6 µM) | 3.79 (≈ 12.5 µM) |  | 36.4 (≈ 120 µM) |  | 17.6 (≈ 58 µM) |  | 0 | 12.3 (≈ 40.6 µM) | 75 (≈ 247 µM) | 25 to 100 (≈ 82.4 to 330 µM) | 26 | 10.8 (≈ 35.6 µM) | 39.1 (≈ 129 µM) |  | 65.6 (≈ 216 µM) |  | 30 | 22 | R% = percentage of resistant strains (Staphylococcus pyogenes): 44%; R% = percentage of resistant strains (Salmonella spp): 9%; MIC (Pseudomonas aeruginosa; read-out: range (MIC)): 1.56 to 25 µg/mL (≈ 5.14 to 82.4 µM); R% = percentage of resistant strains (Staphylococcus spp): 30%; R% = percentage of resistant strains (Streptococcus ovalis): 66% |
| CCn1cc(C(=O)O)c(=O)c2cnc(N3CCCC3)nc21 [Piromidic acid, piromidic acid] |  | 44.3 (≈ 154 µM) |  |  | 11.2 (≈ 38.8 µM) |  | 60.9 (≈ 211 µM) |  | 50 | 38.7 (≈ 134 µM) | 10.4 (≈ 36.1 µM) | 6.25 to 12.5 (≈ 21.7 to 43.4 µM) | 76 | 60 (≈ 208 µM) | 39.1 (≈ 135 µM) |  | 100 (≈ 347 µM) |  | 45 | 61 | R% = percentage of resistant strains (Staphylococcus pyogenes): 69%; R% = percentage of resistant strains (Salmonella spp): 36%; R% = percentage of resistant strains (Staphylococcus spp): 60%; R% = percentage of resistant strains (Streptococcus ovalis): 87% |
| CCn1cc(C(=O)O)c(=O)c2cc(F)c(N3CCNCC3)nc21 [enoxacin] | 0 |  |  |  |  |  |  |  |  |  |  |  |  |  |  |  |  |  |  |  |  |
